Experimental data taken from ChEMBL document CHEMBL1201862, “PubChem BioAssay data set” (2004).
Calls of active or inactive are those of the source.

Key:
[1] = biological target: T1, DNA repair and recombination protein RAD54-like (Homo sapiens, UniProt Q92698); assay: RAD54 Holliday junction migration blockers – biochemical, fluorescence, cherry-picked samples, dose series, confirmation (AID 651657); assay type: functional
T1 sequence (Q92698 whole entry): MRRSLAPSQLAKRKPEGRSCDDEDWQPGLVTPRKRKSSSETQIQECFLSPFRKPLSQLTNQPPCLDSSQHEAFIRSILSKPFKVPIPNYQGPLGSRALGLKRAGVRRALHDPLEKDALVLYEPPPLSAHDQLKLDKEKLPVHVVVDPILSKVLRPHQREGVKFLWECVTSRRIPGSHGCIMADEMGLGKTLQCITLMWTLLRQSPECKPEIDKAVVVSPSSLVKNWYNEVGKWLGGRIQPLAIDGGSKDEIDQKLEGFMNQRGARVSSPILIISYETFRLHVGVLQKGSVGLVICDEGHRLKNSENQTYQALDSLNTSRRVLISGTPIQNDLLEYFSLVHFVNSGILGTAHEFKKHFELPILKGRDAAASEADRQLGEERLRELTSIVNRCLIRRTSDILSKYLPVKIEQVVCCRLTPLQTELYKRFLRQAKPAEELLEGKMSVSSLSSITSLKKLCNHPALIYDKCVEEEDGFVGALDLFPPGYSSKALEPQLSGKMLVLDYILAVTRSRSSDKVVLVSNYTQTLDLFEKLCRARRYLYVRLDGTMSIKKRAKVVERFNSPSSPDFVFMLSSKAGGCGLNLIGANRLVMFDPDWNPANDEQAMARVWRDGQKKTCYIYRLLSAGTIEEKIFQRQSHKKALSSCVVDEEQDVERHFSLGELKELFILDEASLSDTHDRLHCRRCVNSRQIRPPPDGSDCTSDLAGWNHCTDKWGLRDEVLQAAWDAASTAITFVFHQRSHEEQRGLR

[2] = biological target: T2, DNA repair protein RAD52 homolog (Homo sapiens, UniProt P43351); assay type: functional, biochemical
T2 sequence (P43351 whole entry): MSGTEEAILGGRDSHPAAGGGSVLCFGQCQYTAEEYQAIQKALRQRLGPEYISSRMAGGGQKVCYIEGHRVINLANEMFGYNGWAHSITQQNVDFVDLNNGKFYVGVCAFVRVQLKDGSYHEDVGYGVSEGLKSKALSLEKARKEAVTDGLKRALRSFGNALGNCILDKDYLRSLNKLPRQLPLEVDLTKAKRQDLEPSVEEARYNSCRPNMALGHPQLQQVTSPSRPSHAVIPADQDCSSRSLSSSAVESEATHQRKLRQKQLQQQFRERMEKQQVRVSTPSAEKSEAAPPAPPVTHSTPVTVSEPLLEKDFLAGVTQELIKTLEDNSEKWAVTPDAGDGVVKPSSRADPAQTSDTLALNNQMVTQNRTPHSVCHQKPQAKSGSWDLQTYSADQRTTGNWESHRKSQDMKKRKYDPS

Beta-galactosidase = Beta-galactosidase (Escherichia coli, UniProt Q8VNN2); assay: PubChem AID 485352; assay type: functional
Beta-galactosidase, sequence (Q8VNN2 whole entry): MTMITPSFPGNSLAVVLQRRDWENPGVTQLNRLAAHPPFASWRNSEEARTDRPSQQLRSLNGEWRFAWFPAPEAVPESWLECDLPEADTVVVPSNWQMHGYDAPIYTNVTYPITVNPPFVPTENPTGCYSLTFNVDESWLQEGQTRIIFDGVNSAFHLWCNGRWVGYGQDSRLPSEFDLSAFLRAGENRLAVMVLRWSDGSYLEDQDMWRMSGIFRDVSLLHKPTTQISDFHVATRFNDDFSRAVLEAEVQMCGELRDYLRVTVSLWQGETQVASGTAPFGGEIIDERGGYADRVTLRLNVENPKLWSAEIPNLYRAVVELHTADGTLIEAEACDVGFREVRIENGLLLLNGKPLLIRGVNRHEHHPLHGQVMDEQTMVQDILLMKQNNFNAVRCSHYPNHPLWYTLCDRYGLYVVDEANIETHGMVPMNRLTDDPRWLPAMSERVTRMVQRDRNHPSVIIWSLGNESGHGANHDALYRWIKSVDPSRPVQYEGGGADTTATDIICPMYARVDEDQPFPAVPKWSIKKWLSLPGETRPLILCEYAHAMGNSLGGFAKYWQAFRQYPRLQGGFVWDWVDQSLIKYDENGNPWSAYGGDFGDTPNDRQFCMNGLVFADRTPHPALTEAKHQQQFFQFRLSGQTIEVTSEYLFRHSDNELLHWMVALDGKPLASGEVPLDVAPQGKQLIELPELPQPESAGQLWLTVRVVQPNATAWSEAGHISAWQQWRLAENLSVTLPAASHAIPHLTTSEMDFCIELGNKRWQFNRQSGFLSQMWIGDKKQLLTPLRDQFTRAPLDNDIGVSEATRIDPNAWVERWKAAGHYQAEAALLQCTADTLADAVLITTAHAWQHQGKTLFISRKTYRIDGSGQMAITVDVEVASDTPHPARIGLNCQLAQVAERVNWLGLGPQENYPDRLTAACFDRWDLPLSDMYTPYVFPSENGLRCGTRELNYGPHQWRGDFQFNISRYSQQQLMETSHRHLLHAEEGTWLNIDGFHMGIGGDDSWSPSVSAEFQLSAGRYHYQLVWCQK

[3] = biological target: T3, Type-1 angiotensin II receptor (Homo sapiens, UniProt P30556); assay: antagonism of angiotensin II type 1 receptor – cell-based, uHTS hits, selectivity assay for APJ receptor antagonist project, dose response (AID 463214); assay type: functional;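 note: antagonist potency against angiotensin II stimulated AT1 response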
T3 sequence (P30556 whole entry): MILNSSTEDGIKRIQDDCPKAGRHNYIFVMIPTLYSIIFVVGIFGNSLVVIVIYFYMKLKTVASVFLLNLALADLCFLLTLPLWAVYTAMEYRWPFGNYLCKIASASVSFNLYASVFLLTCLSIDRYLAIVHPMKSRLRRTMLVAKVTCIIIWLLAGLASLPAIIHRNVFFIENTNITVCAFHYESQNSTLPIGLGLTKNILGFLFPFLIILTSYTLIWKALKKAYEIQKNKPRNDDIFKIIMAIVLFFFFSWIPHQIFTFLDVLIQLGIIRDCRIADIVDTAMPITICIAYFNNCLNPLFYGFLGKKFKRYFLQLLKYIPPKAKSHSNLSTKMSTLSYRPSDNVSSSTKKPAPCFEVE

[4] = Trypanosoma cruzi growth suppression in host cells – NIH3T3 host cells, beta-gal luminescence, confirmation (AID 2044); assay type: functional, cell-based;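 note: intracellular parasites grown in NIH/3T3 mouse fibroblasts as host cells; luminescent beta-galactosidase reporter signal from transgenic T. cruzi replicating inside host cells; inhibitors lower the luminescence signal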
[5] = NIH3T3 cell viability loss – ATP luminescence, mouse fibroblasts, counter-screen, dose response (AID 2010); assay type: functional, cell-based;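 note: cells exposed to compound for about 90 hours before reading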
[6] = biological target: Nuclear receptor subfamily 5 group A member 2 (Homo sapiens, UniProt O00482); assay type: functional, cell-based;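 note: HEK293T cells transfected with LRH-1 and a StAR promoter luciferase reporter; potency for inhibitors that lower LRH-1 driven reporter light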
Nuclear receptor subfamily 5 group A member 2, sequence (O00482 whole entry): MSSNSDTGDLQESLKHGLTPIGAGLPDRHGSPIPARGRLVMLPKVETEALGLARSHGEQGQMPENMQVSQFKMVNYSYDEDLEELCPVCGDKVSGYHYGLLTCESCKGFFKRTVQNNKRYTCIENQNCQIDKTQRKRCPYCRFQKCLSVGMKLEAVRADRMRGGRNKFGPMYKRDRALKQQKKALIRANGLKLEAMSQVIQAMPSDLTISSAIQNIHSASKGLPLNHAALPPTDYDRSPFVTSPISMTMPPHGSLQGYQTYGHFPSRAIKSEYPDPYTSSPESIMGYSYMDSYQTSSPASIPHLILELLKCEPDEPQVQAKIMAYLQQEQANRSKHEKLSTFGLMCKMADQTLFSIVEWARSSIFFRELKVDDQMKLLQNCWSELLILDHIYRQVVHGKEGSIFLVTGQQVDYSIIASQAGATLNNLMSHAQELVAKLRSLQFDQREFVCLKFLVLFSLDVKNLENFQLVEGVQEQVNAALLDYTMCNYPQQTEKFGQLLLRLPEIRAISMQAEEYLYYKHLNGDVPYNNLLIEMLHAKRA

Steroidogenic factor 1 = Steroidogenic factor 1 (Homo sapiens, UniProt Q13285); assay: Counterscreen for inverse agonists of the liver receptor homolog-1 (LRH-1; NR5A2): Luminescence-based cell-based high throughput dose response assay to identify inverse agonists of the Steroidogenic Factor 1 Nuclear Receptor (SF1; NR5A1).; assay type: functional
Steroidogenic factor 1, sequence (Q13285 whole entry): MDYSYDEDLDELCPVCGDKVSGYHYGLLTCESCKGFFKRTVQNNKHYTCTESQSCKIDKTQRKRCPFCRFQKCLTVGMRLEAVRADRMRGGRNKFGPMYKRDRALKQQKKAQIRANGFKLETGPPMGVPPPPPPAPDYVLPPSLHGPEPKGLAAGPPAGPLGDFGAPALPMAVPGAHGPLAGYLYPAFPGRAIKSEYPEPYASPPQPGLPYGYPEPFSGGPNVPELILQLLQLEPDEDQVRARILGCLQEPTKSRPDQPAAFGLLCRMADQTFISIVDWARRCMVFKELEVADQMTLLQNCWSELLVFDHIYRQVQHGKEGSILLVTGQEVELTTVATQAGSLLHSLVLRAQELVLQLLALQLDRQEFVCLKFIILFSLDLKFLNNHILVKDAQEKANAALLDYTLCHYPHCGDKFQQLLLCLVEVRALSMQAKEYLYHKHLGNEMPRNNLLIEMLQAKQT

[7] = nonselective StAR promoter luciferase inhibitors – cell-based, luminescence, luciferase reporter, counter-screen for LRH-1 inverse agonist project, dose response (AID 651969); assay type: functional
[8] = test system: Streptococcus sp. 'group A'; assay: Streptococcus pyogenes SK(-)GAS viability under kanamycin – luminescence, BacTiterGlo, confirmation, counter-screen for streptokinase expression inhibitor project, dose response (AID 1900); assay type: functional, organism-based
Streptokinase A = biological target: T4, Streptokinase A (Streptococcus pyogenes serotype M1, UniProt P10520); assay: viability-normalized secreted streptokinase activity reduction – plasminogen activation absorbance, OD405, dose response (AID 1914); assay type: functional, Streptococcus pyogenes M1 GAS;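 note: secreted streptokinase activity via plasminogen activation per viability signal from cell pellet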
T4 sequence (P10520 whole entry): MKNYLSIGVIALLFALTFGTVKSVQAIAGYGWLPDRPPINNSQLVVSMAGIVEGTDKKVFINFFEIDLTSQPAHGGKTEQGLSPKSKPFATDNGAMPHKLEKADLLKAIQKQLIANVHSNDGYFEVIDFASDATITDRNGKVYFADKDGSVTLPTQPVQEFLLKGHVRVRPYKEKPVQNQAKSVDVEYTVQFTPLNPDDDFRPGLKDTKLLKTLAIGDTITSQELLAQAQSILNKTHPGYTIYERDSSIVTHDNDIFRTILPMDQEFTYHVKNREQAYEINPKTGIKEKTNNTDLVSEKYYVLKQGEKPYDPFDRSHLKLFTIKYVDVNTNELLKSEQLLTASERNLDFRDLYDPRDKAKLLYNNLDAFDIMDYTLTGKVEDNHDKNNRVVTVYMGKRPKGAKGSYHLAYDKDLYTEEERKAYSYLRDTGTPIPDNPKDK

Streptococcus = assay: GAS UMAA2166 growth inhibition – luminescence, BacTiterGlo, counter-screen for streptokinase expression inhibitor project, dose response (AID 1915); assay type: functional, organism-based;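 note: potency for reduction of bacterial viability or growth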
[9] = biological target: Heat shock protein HSP 90-alpha (Homo sapiens, UniProt P07900); assay type: functional, organism-based
[10] = THP-1 cell cytotoxicity, dose response, cytotoxicity control for non-replicating M. tuberculosis project (AID 489025); assay type: functional
[11] = Vero E6 cell cytotoxicity, dose response, cytotoxicity control for non-replicating M. tuberculosis project, secondary assay (AID 492998); assay type: functional, VeroE6; conditions: Vero C1008
cells = assay type: functional
[12] = biological target: T5, Short transient receptor potential channel 4 (Mus musculus, UniProt Q9QUQ5); assay: block of DAMGO-driven TRPC4 calcium entry – cell-based, HEK293 TRPC4/mu-opioid, Fluo-4 calcium, dose response (AID 434942); assay type: functional;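 note: potency of inhibitors blocking the TRPC4 calcium response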
T5 sequence (Q9QUQ5 whole entry): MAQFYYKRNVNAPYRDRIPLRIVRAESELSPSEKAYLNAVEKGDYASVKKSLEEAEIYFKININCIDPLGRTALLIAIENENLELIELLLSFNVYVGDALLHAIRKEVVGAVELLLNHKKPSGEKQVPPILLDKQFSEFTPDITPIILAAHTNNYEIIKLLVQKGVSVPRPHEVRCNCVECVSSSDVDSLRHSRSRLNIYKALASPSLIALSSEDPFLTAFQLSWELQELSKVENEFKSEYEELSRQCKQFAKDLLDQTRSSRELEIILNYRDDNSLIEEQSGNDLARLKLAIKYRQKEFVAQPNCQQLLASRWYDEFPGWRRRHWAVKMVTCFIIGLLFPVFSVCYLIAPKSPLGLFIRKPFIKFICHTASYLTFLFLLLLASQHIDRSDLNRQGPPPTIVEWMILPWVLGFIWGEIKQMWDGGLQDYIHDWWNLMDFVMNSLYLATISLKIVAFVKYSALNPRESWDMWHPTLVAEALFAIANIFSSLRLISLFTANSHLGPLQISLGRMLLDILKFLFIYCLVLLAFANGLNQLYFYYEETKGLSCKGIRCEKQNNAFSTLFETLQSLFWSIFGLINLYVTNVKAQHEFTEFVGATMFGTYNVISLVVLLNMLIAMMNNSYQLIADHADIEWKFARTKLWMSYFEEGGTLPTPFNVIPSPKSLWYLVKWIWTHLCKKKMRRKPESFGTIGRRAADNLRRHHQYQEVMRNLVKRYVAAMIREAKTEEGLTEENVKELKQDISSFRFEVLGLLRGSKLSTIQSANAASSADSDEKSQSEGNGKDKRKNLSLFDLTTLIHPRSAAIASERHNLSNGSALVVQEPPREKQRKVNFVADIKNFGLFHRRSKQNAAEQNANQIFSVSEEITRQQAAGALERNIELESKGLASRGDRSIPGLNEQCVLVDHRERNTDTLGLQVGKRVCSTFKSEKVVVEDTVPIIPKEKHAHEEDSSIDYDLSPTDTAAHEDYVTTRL

Protein skinhead-1 = biological target: T6, Protein skinhead-1 (Caenorhabditis elegans, UniProt P34707); assay type: functional
T6 sequence (P34707 whole entry): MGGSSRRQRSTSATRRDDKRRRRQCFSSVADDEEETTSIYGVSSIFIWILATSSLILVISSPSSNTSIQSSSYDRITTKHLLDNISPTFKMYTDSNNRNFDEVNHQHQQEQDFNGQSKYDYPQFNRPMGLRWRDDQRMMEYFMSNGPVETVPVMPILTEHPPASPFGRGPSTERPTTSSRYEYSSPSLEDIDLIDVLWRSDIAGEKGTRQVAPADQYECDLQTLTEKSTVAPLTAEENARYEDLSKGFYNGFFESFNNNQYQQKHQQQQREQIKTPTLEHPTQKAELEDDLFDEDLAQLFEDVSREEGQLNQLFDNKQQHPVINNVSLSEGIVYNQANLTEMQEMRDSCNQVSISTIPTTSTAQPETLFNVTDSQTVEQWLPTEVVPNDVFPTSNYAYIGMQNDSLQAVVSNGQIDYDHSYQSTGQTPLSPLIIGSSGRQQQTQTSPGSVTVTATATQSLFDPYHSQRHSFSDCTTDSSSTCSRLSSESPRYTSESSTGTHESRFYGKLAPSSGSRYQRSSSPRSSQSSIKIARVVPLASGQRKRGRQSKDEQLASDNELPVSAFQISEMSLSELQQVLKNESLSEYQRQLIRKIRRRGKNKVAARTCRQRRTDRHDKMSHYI

Cytochrome P450 2C19 = Cytochrome P450 2C19 (Homo sapiens, UniProt P33261); assay: Cytochrome panel assay with activity outcomes. Panel member name: p450-cyp2c19 Compounds with AC50 equal or less than 10 uM are considered active; assay type: functional; conditions: read-out: AC50
Cytochrome P450 2C19, sequence (P33261 whole entry): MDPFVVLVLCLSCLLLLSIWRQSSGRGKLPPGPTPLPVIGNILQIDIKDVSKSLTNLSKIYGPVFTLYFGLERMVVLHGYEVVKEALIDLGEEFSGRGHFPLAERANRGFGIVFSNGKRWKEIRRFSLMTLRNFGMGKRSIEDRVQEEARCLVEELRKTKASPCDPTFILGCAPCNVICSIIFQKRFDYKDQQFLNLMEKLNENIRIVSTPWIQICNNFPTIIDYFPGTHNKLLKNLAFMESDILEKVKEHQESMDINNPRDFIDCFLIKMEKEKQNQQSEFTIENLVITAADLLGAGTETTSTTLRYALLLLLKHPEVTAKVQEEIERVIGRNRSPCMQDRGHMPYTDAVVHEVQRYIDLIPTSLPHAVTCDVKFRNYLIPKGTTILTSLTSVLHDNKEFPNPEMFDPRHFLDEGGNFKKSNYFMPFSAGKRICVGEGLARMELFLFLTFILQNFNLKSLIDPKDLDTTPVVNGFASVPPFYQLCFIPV

Cytochrome P450 2D6 = Cytochrome P450 2D6 (Homo sapiens, UniProt P10635);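 note: CYP2D6 member of a cytochrome P450 panel assay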
Cytochrome P450 2D6, sequence (P10635 whole entry): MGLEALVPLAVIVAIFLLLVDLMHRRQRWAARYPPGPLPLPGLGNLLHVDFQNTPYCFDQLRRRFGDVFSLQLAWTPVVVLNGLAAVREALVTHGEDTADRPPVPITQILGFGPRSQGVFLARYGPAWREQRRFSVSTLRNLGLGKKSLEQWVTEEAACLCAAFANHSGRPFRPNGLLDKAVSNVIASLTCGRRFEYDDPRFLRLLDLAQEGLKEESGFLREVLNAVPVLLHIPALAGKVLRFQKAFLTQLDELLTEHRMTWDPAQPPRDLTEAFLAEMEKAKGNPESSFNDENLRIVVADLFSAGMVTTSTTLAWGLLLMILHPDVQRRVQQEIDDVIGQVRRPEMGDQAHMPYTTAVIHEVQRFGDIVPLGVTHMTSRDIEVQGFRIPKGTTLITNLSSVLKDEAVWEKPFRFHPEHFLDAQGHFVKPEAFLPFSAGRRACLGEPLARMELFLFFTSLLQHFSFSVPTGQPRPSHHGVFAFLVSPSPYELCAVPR

[13] = biological target: Glucose-6-phosphate 1-dehydrogenase (Homo sapiens, UniProt P11413); assay: inhibition of Homo sapiens G6PD, dose series – biochemical, fluorescence, selectivity assay for P. falciparum G6PD inhibitor project, dose response (AID 504792); assay type: functional
Glucose-6-phosphate 1-dehydrogenase, sequence (P11413 whole entry): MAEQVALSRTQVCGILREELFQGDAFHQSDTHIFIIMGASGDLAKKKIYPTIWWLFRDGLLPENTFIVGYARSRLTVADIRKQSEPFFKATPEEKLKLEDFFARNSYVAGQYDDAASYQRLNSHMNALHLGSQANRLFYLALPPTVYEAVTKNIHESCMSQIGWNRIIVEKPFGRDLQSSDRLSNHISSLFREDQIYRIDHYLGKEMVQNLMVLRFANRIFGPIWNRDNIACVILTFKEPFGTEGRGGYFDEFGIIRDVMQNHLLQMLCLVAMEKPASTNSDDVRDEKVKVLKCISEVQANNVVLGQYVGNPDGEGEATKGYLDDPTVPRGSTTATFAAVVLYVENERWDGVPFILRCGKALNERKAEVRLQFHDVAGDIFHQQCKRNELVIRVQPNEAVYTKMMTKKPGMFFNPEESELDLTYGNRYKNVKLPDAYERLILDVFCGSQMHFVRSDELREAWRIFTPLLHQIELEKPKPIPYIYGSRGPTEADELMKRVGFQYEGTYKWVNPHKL

Genome polyprotein = Genome polyprotein (dengue virus type 2, UniProt P29990); assay: flavivirus cap methylation enzyme inhibition – biochemical, confirmation dose response, primary screen (AID 588689); assay type: functional
Genome polyprotein, sequence (P29990 2492-3391 limits assumed): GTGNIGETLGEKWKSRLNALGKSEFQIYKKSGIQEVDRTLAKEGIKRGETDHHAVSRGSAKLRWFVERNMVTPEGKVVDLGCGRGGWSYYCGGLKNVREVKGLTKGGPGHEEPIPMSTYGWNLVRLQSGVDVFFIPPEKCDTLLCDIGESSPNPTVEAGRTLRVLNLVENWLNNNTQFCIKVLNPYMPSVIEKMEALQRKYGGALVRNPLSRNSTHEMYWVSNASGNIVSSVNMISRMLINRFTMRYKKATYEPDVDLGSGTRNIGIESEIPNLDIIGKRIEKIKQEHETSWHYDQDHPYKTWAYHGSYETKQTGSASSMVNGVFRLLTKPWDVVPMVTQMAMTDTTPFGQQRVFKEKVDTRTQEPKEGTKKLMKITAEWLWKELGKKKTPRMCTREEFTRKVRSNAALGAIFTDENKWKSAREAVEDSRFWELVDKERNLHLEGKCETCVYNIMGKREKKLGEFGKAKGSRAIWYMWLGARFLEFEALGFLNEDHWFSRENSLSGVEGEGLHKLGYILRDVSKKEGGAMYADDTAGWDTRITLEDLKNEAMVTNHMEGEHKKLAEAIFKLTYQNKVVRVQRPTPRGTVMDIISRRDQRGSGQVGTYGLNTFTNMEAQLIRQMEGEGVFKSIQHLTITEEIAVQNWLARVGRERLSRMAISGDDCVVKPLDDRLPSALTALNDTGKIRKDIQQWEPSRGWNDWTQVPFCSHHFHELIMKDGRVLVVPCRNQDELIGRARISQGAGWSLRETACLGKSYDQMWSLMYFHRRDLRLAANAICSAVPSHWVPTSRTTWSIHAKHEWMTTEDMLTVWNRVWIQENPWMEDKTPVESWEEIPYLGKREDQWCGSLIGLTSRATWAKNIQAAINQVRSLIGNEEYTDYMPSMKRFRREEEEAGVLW

[14] = bead-based luminescence quenchers, dual-tagged ARNT – biochemical, AlphaScreen, cherry-pick, artefact control for ARNT-TACC3 interaction inhibitor project, dose response (AID 651705); assay type: functional;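 note: AlphaScreen bead proximity signal that flags compounds interfering with the detection technology; potency reflects signal decrease which marks the compound as an assay artifact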

With `Cc1c(C)n(CCN(C)C)c2ccc(C(=O)OCCN(C)C)cc12` the AC50 [1] was 8.41 µM (active) and the AC50 [2] was 1.31 µM (active).
For `CC(C)c1nc(C#N)c(NN)o1`, the EC50 (Beta-galactosidase) was > 40 µM (inactive) and the IC50 [3] was 25.3 µM (not active).
With `COc1ccc(NS(=O)(=O)c2ccc(OCC(=O)N3CCN(C)CC3)cc2)cc1Cl` the EC50 [4] was 0.524 µM (active), the EC50 [5] was > 30 µM (not active) and the IC50 [6] was 9.48 µM (active). The IC50 (Steroidogenic factor 1) was 5.92 µM (active) and the IC50 [7] was 35.9 µM (inactive).
With `O=C(/C=C/c1cccc(C(F)(F)F)c1)Nc1cccc(C(F)(F)F)c1` the EC50 [8] was 4.38 µM (active), the EC50 (Streptokinase A) was > 50 µM (not active) and the EC50 (Streptococcus) was 4.93 µM (active). For the same compound, the AC50 [9] was 4.19 µM (active).
With `C=CCc1ccc(OCC(O)CN2CCN(Cc3ccc(Cl)cc3)CC2)c(OC)c1` (configuration not stated) the CC50 [10] was > 40 µM (active), the CC50 [11] was > 20 µM (active) and the IC50 (cells) was 23.3 µM (active).
For `O=C(c1ccco1)N1CCN(C/C=C/c2ccccc2)CC1`, the EC50 [12] was 0.596 µM (active) and the IC50 (Protein skinhead-1) was > 100 µM (inactive).
For `Cc1cc(C)c2c(N=NN(C)C)[nH]nc2n1`, the AC50 (Cytochrome P450 2C19) was 39.8 µM (inconclusive), the AC50 [9] was 3.96 µM (active) and the AC50 (Cytochrome P450 2D6) was 14.1 µM (inconclusive).
In the case of `COc1ccc(NC(=O)CN2C(=O)NC3(CCCC3)C2=O)cc1`, the IC50 [6] is reported as 35.9 µM (inactive), the IC50 (Steroidogenic factor 1) is reported as 35.9 µM (inactive) and the IC50 [7] is reported as 35.9 µM (inactive).
With `CCN(CC)C1CC(=O)N(c2ccc(Br)cc2)C1=O` (configuration not stated) the AC50 [9] was 4.04 µM (active).
For `Oc1cc(CNCc2ccccc2)c(O)cc1CNCc1ccccc1`, the IC50 [13] was > 80 µM (inactive) and the IC50 (Genome polyprotein) was 37.4 µM (active).
In the case of `C/C=C/c1ccc([C@@H]2[C@H](CO)N(Cc3ccccn3)[C@H]2CNC(C)=O)cc1`, the AC50 [14] is reported as 83.2 µM (active).
With `COc1cc(/C=N/NC(N)=S)ccc1OCC(=O)Nc1ccc(C)cc1` the IC50 [6] was 35.9 µM (inactive), the IC50 (Steroidogenic factor 1) was 8.04 µM (active) and the IC50 [7] was 35.9 µM (inactive).
In the case of `COc1cccc(/C=N/NC(=O)c2c(C)nc3ccc(Br)cn23)c1`, the IC50 [13] is reported as 36 µM (inactive).
